The source of these data is patent US20100068204A1, “4-ARYLOXYQUINOLIN-2(1H)-ONES AS MTOR KINASE AND PI3 KINASE INHIBITORS, FOR USE AS ANTI-CANCER AGENTS” (Wyeth, priority 2008, published 2010).

Like-named read-outs stand apart in the source and are kept apart here.

Data set [1] relates to human tumor xenograft models. The settings on record: cited from earlier work.
A further data set concerns the target mTOR (Homo sapiens, UniProt P42345). As to conditions: read-out: mTOR IC50; literature; mTOR complexes / mTOR enzymes; cited from earlier work.
The conditions of data set [2]: single- and repeat-dosing; cited from earlier work.
Another data set concerns the target PI3Kα (Homo sapiens, UniProt P42336). Description: PI3Kα fluorescence polarization assay. As to conditions: 20 μM PIP2, 25 μM ATP. It is filed as biochemical. The essentials: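 Kinase reaction in 20 mM HEPES pH 7.5, 2 mM MgCl2, 0.05% CHAPS with final 20 μM diC8-PIP2 and 25 μM ATP, 30-60 min at room temperature. Stopped with 10 nM TAMRA-labelled probe plus 2.5 uM GST-murine GRP; fluorescence polarization read after 90-110 minutes.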

The target of a further data set is human TOR (FLAG-TOR) (Homo sapiens, UniProt P42345). Description: mTOR enzyme assay (DELFIA format, purified enzyme). Type of data set: biochemical. As to conditions: 800 ng/ml FLAG-TOR, 100 μM ATP, 1.25 μM His6-S6K; read-out: mTOR Kinase IC50.
The subject of data set [3] is MDA468 breast tumor cells. Description: In vitro cell growth assay (MTS), MDA468. Type of data set: cell-based, human. The settings on record: three days after drug treatment. The procedure, abridged: (§1)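 Tumor cells plated ~3000/well; inhibitors in DMSO added one day later (final DMSO 0.25%). After three days of treatment, viable cell density read by MTS conversion, absorbance at 490 nm. Effect expressed relative to untreated control growth.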

The subject of data set [4] is LNCap prostate tumor cells. Description: In vitro cell growth assay (MTS), LNCap. It is filed as cell-based, human. As to conditions: Homo sapiens, LNCaP, 72 h, three days after drug treatment. The essentials: as §1
The subject of data set [5] is acute lymphoblastic leukemia xenograft. The settings on record: in vivo; cited from earlier work.

Sequence of PI3Kα (P42336 whole entry, species assumed): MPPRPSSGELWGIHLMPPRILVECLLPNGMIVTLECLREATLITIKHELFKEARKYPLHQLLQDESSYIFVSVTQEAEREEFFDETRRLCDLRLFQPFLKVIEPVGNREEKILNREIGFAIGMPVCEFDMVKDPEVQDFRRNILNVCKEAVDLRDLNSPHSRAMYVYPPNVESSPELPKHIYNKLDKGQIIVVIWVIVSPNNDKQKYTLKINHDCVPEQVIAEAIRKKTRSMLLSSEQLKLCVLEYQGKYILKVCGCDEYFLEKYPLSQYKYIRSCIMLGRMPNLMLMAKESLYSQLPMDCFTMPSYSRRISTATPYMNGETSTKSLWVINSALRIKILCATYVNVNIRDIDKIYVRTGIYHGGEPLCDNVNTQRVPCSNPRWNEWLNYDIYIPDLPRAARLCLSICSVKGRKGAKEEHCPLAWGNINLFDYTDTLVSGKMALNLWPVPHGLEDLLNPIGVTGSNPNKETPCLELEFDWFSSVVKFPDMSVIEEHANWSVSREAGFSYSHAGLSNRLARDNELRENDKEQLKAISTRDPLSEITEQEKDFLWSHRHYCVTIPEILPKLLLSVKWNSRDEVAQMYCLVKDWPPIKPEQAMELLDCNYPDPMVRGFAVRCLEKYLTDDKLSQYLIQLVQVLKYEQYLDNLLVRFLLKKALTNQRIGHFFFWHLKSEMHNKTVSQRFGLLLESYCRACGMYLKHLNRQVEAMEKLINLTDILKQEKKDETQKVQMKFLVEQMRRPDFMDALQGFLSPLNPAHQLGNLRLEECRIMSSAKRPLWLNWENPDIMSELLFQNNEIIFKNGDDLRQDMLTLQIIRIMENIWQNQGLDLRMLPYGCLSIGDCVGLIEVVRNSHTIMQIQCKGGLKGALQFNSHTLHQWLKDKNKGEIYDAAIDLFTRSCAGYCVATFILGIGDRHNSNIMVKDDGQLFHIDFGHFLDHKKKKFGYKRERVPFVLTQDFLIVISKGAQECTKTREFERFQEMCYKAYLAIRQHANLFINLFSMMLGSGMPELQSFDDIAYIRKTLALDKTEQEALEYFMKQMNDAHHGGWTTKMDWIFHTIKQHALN
Sequence of PI3Kα (P27986 whole entry partner, species assumed): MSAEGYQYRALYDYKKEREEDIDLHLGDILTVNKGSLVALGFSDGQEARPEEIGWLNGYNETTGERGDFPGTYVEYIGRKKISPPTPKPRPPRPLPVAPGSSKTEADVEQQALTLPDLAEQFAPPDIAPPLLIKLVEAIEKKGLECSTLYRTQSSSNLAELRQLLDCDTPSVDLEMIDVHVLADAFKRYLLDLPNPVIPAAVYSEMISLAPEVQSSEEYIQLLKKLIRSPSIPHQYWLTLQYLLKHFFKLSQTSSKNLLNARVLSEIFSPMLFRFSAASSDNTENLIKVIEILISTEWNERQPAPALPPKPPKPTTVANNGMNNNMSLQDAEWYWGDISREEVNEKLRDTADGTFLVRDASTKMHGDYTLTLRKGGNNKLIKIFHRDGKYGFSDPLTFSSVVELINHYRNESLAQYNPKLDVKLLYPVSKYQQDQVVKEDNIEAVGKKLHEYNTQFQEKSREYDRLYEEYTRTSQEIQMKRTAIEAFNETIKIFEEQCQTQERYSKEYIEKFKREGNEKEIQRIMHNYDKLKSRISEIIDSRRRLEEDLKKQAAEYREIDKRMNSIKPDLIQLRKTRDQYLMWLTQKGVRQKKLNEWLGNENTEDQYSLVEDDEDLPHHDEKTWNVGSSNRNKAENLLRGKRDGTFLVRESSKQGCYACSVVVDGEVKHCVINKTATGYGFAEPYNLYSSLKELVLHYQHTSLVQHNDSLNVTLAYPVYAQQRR

Regarding `CN(Cc1cccnc1)c1cccc(Oc2cc(=O)[nH]c3ccccc23)c1` [Example 161, 4-{3-[methyl(pyridin-3-ylmethyl)amino]phenoxy}quinolin-2(1H)-one], the melting point was 187 to 193 °C (dec.).

The compound `O=c1cc(Oc2ccccn2)c2ccccc2[nH]1` [Example 137, 4-(pyridin-2-yloxy)quinolin-2(1H)-one] showed a melting point above 360 °C.

`O=c1cc(Oc2cccnc2)c2ccccc2[nH]1` [Example 119, 4-(pyridin-3-yloxy)quinolin-2(1H)-one] registered a melting point of 242 to 243 °C.

As for `Oc1cccc(-c2nc(N3CCOCC3)c3oc4ncccc4c3n2)c1` [PI103, 3-(4-(4-morpholinyl)pyrido[3′,2′:4,5]furo[3,2-d]pyrimidin-2-yl)phenol], the “activity in human tumor xenograft models” value in data set [1] (I.P. dosing in mice, U87MG, PC3, MDA-MB-468, MDA-MB-435, HCT 116, SKOV3, IGROV-1) is listed as “demonstrated activity”.

Turning to `FC(F)c1nc2ccccc2n1-c1nc(N2CCOCC2)nc(N2CCOCC2)n1` [ZSTK474, 2-(2-difluoromethylbenzoimidazol-1-yl)-4,6-dimorpholino-1,3,5-triazine], the “tumor growth in mouse human xenograft cancer models” value in data set [1] (chronic oral administration, 400 mg/kg, A549, PC-3, WiDr) is given as “completely inhibited growth”. For the same compound, the IC50 on mTOR is above 10 µM.

In the case of `CN1CCN(c2cccc(Oc3cc(=O)[nH]c4ccccc34)c2)CC1` [Example 140, 4-[3-(4-methylpiperazin-1-yl)phenoxy]quinolin-2(1H)-one], the melting point was 218 to 221 °C.

`O=c1cc(Oc2cccc(OCc3ccccc3)c2)c2ccccc2[nH]1` [Example 57, 4-[3-(benzyloxy)phenoxy]quinolin-2(1H)-one]: the melting point lay within 262 to 265 °C.

For `O=C1NC(=O)/C(=C/c2ccc3nccc(-c4ccncc4)c3c2)S1` [GSK-1059615], in data set [2], the “exposure in phase 1 clinical study” value is “lack of sufficient exposure”.

For the compound `Cn1c(=O)n(-c2ccc(C(C)(C)C#N)cc2)c2c3cc(-c4cnc5ccccc5c4)ccc3ncc21` [NVP-BEZ-235, 2-methyl-2-(4-(3-methyl-2-oxo-8-(quinolin-3-yl)-2,3-dihydro-1H-imidazo[4,5-c]quinolin-1-yl)phenyl)propanenitrile], the “activity in human tumor xenograft models” value in data set [1] (prostrate (PC-3) and glioblastoma (U-87)) is on record as “demonstrated activity”.

As to `O=c1cc(Oc2ccccc2)c2cc(-c3cn[nH]c3)ccc2[nH]1`, the half-inhibitory concentration (IC50) was 0.375 µM at PI3Kα; 19 µM at human TOR (FLAG-TOR); above 60 µM in data set [3] (Homo sapiens, 72 h); above 60 µM in [4].

For the compound `CC(=O)Nc1ccc2[nH]c(=O)cc(Oc3ccccc3)c2c1`, the half-inhibitory concentration (IC50) against PI3Kα was above 10 µM; on human TOR (FLAG-TOR) it was above 20 µM; in data set [3] (Homo sapiens, 72 h), above 60 µM; in data set [4], above 60 µM.

With `CNc1ncccc1CNc1cccc(Oc2cc(=O)[nH]c3ccccc23)c1`, the concentration for half-maximal inhibition (IC50) was above 10 µM at PI3Kα; 0.09 µM on human TOR (FLAG-TOR); 6.8 µM in data set [3] (Homo sapiens, 72 h); 2.8 µM in data set [4].

In the case of `Cc1ccc(Oc2cc(=O)[nH]c3ccccc23)cc1`, the IC50 on PI3Kα is 4.17 µM; at human TOR (FLAG-TOR), 1.15 µM; in data set [3] (Homo sapiens, 72 h), above 60 µM; in data set [4] it was 18 µM.

On to `CN(C)CCCOc1ccc(-c2ccc(Oc3cc(=O)[nH]c4ccccc34)cc2)cn1`, for which the 50% inhibitory concentration (IC50) is above 10 µM on PI3Kα; 0.82 µM on human TOR (FLAG-TOR); 3.9 µM in [3] (Homo sapiens, 72 h); 2.1 µM in [4].

As to `O=c1cc(Oc2ccc(F)cc2)c2ccccc2[nH]1`, the IC50 is 1.59 µM on PI3Kα; 0.6 µM on human TOR (FLAG-TOR); above 60 µM in data set [3] (Homo sapiens, 72 h); 18 µM in data set [4].

Take `CO[C@H]1C[C@@H]2CC[C@@H](C)[C@@](O)(O2)C(=O)C(=O)N2CCCC[C@H]2C(=O)O[C@H]([C@H](C)C[C@@H]2CC[C@@H](OC(=O)C(C)(CO)CO)[C@H](OC)C2)CC(=O)[C@H](C)/C=C(\C)[C@@H](O)[C@@H](OC)C(=O)[C@H](C)C[C@H](C)/C=C/C=C/C=C/1C` [Torisel]: the “activity in NOS/SCID xenograft mouse model of acute lymphoblastic leukemia” value in data set [5] is “active”.

In the case of `Nc1ccc2[nH]c(=O)cc(Oc3ccccc3)c2c1`, the IC50 against PI3Kα is 2.57 µM; on human TOR (FLAG-TOR) it was above 20 µM; in data set [3] (Homo sapiens, 72 h), above 60 µM; in [4], above 60 µM.

As to `O=c1cc(Oc2cccc(NCC3CCN(Cc4ccccc4)CC3)c2)c2ccccc2[nH]1`, the concentration for half-maximal inhibition (IC50) against PI3Kα was 9.54 µM; at human TOR (FLAG-TOR), 0.18 µM; in data set [3] (Homo sapiens, 72 h) it was 4.1 µM; in data set [4], 3 µM.

As to `CN1CCN(CCNc2ccc(-c3cccc(Oc4cc(=O)[nH]c5ccccc45)c3)cc2)CC1`, the IC50 at PI3Kα is above 10 µM; at human TOR (FLAG-TOR) it was 0.14 µM; in [3] (Homo sapiens, 72 h), 23 µM; in data set [4] it was 12 µM.

For the compound `Cn1ccc2cc(CNc3cccc(Oc4cc(=O)[nH]c5ccccc45)c3)ccc21`, the half-maximal inhibitory concentration (IC50) on PI3Kα was found to be 1.42 µM; at human TOR (FLAG-TOR) it was 0.35 µM; in [3] (Homo sapiens, 72 h) it was 1.2 µM; in data set [4] it was 1 µM.

Turning to `CN(C)CCNC(=O)c1ccc(-c2cccc(Oc3cc(=O)[nH]c4ccccc34)c2)cc1`, the IC50 against PI3Kα was above 10 µM; on human TOR (FLAG-TOR) it was 0.24 µM; in data set [3] (Homo sapiens, 72 h) it was 12 µM; in [4], 6 µM.

In the case of `O=c1cc(Oc2cccc(NCc3cccnc3Cl)c2)c2ccccc2[nH]1` [drawing 207], the IC50 at PI3Kα was 11 µM; at human TOR (FLAG-TOR), 0.13 µM; in data set [3], above 60 µM; in [4], 5.3 µM.

`Nc1cccc(Oc2cc(=O)[nH]c3cc(Cl)ccc23)c1`: the IC50 against PI3Kα is 6.73 µM; on human TOR (FLAG-TOR), 0.6 µM; in data set [3] (Homo sapiens, 72 h) it was above 60 µM; in data set [4], 4.5 µM.

`CCN1CCCC(Nc2ccc(-c3cccc(Oc4cc(=O)[nH]c5ccccc45)c3)cc2)C1` (centres unmarked): the IC50 against PI3Kα is 8 µM; at human TOR (FLAG-TOR) it was 0.31 µM; in data set [3] (Homo sapiens, 72 h), 10 µM; in data set [4], 3.9 µM.

As for `CC(C)(C)CNc1ccc(CNc2cccc(Oc3cc(=O)[nH]c4ccccc34)c2)cn1`, the IC50 was 2.09 µM against PI3Kα; 0.35 µM on human TOR (FLAG-TOR); 12 µM in data set [3] (Homo sapiens, 72 h); 7 µM in data set [4].

`CN1CCN(c2cc(-c3cccc(Oc4cc(=O)[nH]c5ccccc45)c3)ccn2)CC1`: the IC50 against PI3Kα was above 10 µM; at human TOR (FLAG-TOR) it was 0.4 µM; in [3] (Homo sapiens, 72 h), 4.05 µM; in data set [4], 2.5 µM.

In the case of `NS(=O)(=O)c1ccc(-c2cccc(Oc3cc(=O)[nH]c4ccccc34)c2)cc1`, the IC50 on PI3Kα was above 10 µM; on human TOR (FLAG-TOR) it was 0.26 µM; in data set [3] (Homo sapiens, 72 h) it was 60 µM; in data set [4], above 60 µM.

For the compound `O=c1cc(Oc2cccc(-c3ccncc3)c2)c2ccccc2[nH]1`, the IC50 at PI3Kα was above 10 µM; at human TOR (FLAG-TOR), 0.37 µM; in data set [3] (Homo sapiens, 72 h) it was 60 µM; in [4], 7 µM.

Regarding `O=c1cc(Oc2cccc(-c3ccc(NCCCl)cc3)c2)c2ccccc2[nH]1`, the IC50 was above 10 µM on PI3Kα; 0.44 µM on human TOR (FLAG-TOR); 11 µM in data set [3] (Homo sapiens, 72 h); 6.2 µM in data set [4].

`O=c1cc(Oc2cccc(-c3ccc(N4CCNCC4)nc3)c2)c2ccccc2[nH]1`: the IC50 is above 10 µM on PI3Kα; 0.15 µM on human TOR (FLAG-TOR); 7 µM in data set [3] (Homo sapiens, 72 h); 4.8 µM in data set [4].

Regarding `O=c1cc(Oc2ccccc2)c2cc(-c3ccoc3)ccc2[nH]1`, the IC50 on PI3Kα is 6.96 µM; at human TOR (FLAG-TOR), 7.3 µM; in data set [3] (Homo sapiens, 72 h), 4.5 µM; in data set [4], above 60 µM.
